In patent US20240294543A1, “CYCLOHEPTA-THIENO-DIAZEPINE DERIVATIVES AS GABA A GAMMA1 PAM” (Hoffmann-La Roche Inc., priority 2021, published 2024):

How the values were obtained:
[1] = biological target: human GABAA α1β2γ1 receptor (Homo sapiens (Human), UniProt P14867+Q8N1C3); assay: Radioligand binding assay, competition for [3H]RO7239181, γ1-containing GABAA subtypes
[2] = biological target: human GABAA α5β2γ1 receptor (Homo sapiens (Human), UniProt P31644+Q8N1C3); assay: as above
[3] = Ki h-GABAA α1β2γ1, membranes of HEK293F cells, [3H]RO7239181 20-30 nM, Table 1
[4] = Ki h-GABAA α1β2γ1, Table 3, reference compounds and examples

| Compound | Ki [1, 3] [nM] | Ki [2] [nM] | Ki [1, 4] [nM] |
| --- | --- | --- | --- |
| Cc1nnc2n1-c1sc3c(c1C(c1c(F)cccc1F)=N[C@H]2C)CCCC[C@@H]3F (single isomer, unassigned) [Example 12] | 45.7 | 2.65 |  |
| Cc1nnc2n1-c1sc3c(c1C(c1c(F)cccc1F)=N[C@H]2C)CC[C@H](F)CC3 (single isomer, unassigned) [Example 14] | 118 | 4.87 |  |
| Cc1nnc2n1-c1sc3c(c1C(c1c(F)cccc1F)=N[C@H]2C)CC[C@@H](F)CC3 (single isomer, unassigned) [Example 15] | 131 | 8 |  |
| Cc1nnc2n1-c1sc3c(c1C(c1c(F)cccc1F)=N[C@H]2C)CCC[C@H](F)C3 (single isomer, unassigned) [Example 17] | 30.2 | 1.77 |  |
| Cc1nnc2n1-c1sc3c(c1C(c1c(F)cccc1F)=N[C@H]2C)CCC(F)C(F)C3 (single isomer, unassigned) [Example 34] | 103 | 20.9 |  |
| Cc1nnc2n1-c1sc3c(c1C(c1c(F)cccc1F)=NC2)CCCCC3 [Example 1, 9-(2,6-difluorophenyl)-3-methyl-18-thia-2,4,5,8-tetrazatetracyclo[8.8.0.02,6.011,17]octadeca-1(10),3,5,8,11(17)-pentaene] | 20 | 1.4 | 19.7 |
| Cc1nnc2n1-c1sc3c(c1C(c1c(F)cccc1F)=N[C@H]2C)CCCCC3 [Example 2, (7S)-9-(2,6-difluorophenyl)-3,7-dimethyl-18-thia-2,4,5,8-tetrazatetracyclo[8.8.0.02,6.011,17]octadeca-1(10),3,5,8,11(17)-pentaene] | 19.2 | 1.7 |  |
| Cc1nnc2n1-c1sc3c(c1C(c1c(F)cccc1F)=N[C@H]2C)CCCC(F)(F)C3 [Example 8, (7S)-9-(2,6-difluorophenyl)-15,15-difluoro-3,7-dimethyl-18-thia-2,4,5,8-tetrazatetracyclo[8.8.0.02,6.011,17]octadeca-1(10),3,5,8,11(17)-pentaene] | 312 | 12.8 |  |
| Cc1nnc2n1-c1sc3c(c1C(c1c(F)cccc1F)=NC2)CCCCO3 [Example 18, 9-(2,6-difluorophenyl)-3-methyl-16-oxa-18-thia-2,4,5,8-tetrazatetracyclo[8.8.0.02,6.011,17]octadeca-1(10),3,5,8,11(17)-pentaene] | 55.1 | 1.84 |  |
| Cc1nnc2n1-c1sc3c(c1C(c1c(F)cccc1F)=N[C@H]2C)CCCCO3 [Example 19, (7S)-9-(2,6-difluorophenyl)-3,7-dimethyl-16-oxa-18-thia-2,4,5,8-tetrazatetracyclo[8.8.0.02,6.011,17]octadeca-1(10),3,5,8,11(17)-pentaene] | 80.5 | 1.86 |  |
| Cc1nnc2n1-c1sc3c(c1C(c1c(F)cccc1F)=N[C@H]2C)COCCO3 [Example 21, (7S)-9-(2,6-difluorophenyl)-3,7-dimethyl-13,16-dioxa-18-thia-2,4,5,8-tetrazatetracyclo[8.8.0.02,6.011,17]octadeca-1(10),3,5,8,11(17)-pentaene] | 52.6 | 2.33 | 52.6 |
| C[C@@H]1N=C(c2c(F)cccc2F)c2c(sc3c2COCCO3)-n2nc(C(=O)N3CC(F)C3)nc21 [Example 24, (3-fluoroazetidin-1-yl)-[(7S)-9-(2,6-difluorophenyl)-7-methyl-13,16-dioxa-18-thia-2,3,5,8-tetrazatetracyclo[8.8.0.02,6.011,17]octadeca-1(10),3,5,8,11(17)-pentaen-4-yl]methanone] | 24.7 | 1.25 |  |
| Cc1nnc2n1-c1sc3c(c1C(c1c(F)cccc1F)=N[C@H]2C)COC[C@H](C)O3 [Example 30, (7S,15S)-9-(2,6-difluorophenyl)-3,7,15-trimethyl-13,16-dioxa-18-thia-2,4,5,8-tetrazatetracyclo[8.8.0.02,6.011,17]octadeca-1(10),3,5,8,11(17)-pentaene] | 205 | 3.28 |  |
| CCOC1CN(C(=O)c2nc3n(n2)-c2sc4c(c2C(c2c(F)cccc2F)=N[C@H]3C)COCCO4)C1 [Example 31, [(7S)-9-(2,6-Difluorophenyl)-7-methyl-13,16-dioxa-18-thia-2,3,5,8-tetrazatetracyclo[8.8.0.02,6.011,17]octadeca-1(10),3,5,8,11(17)-pentaen-4-yl]-(3-ethoxyazetidin-1-yl)methanone] | 43.6 | 2.4 |  |
| Cc1nnc2n1-c1sc3c(c1C(c1c(F)cccc1F)=N[C@H]2C)OCCCC3 [Example 33, (7S)-9-(2,6-difluorophenyl)-3,7-dimethyl-12-oxa-18-thia-2,4,5,8-tetrazatetracyclo[8.8.0.02,6.011,17]octadeca-1(10),3,5,8,11(17)-pentaene] | 380 | 21.8 |  |
| C[C@@H]1N=C(c2c(F)cccc2F)c2c(sc3c2COCCO3)-n2c(C(F)F)nnc21 [Example 48, (7S)-3-(difluoromethyl)-9-(2,6-difluorophenyl)-7-methyl-13,16-dioxa-18-thia-2,4,5,8-tetrazatetracyclo[8.8.0.02,6.011,17]octadeca-1(10),3,5,8,11(17)-pentaene] |  | 13.5 |  |
| CCc1nc2n(n1)-c1sc3c(c1C(c1c(F)cccc1F)=N[C@H]2C)COC[C@H](C)O3 [Example 49, (7S,15S)-9-(2,6-difluorophenyl)-4-ethyl-7,15-dimethyl-13,16-dioxa-18-thia-2,3,5,8-tetrazatetracyclo[8.8.0.02,6.011,17]octadeca-1(10),3,5,8,11(17)-pentaene] |  | 3.32 |  |
| C[C@@H]1N=C(c2c(F)cccc2F)c2c(sc3c2COC[C@H](C)O3)-n2nc(C(=O)NCCO)nc21 [Example 53, (7S,15S)-9-(2,6-difluorophenyl)-N-(2-hydroxyethyl)-7,15-dimethyl-13,16-dioxa-18-thia-2,3,5,8-tetrazatetracyclo[8.8.0.02,6.011,17]octadeca-1(10),3,5,8,11(17)-pentaene-4-carboxamide] |  | 6.2 |  |
| Cc1nnc2n1-c1sc3c(c1C(c1c(F)cccc1F)=N[C@H]2C)CC[C@@H](F)CO3 [Example 56, (7S,14R)-9-(2,6-difluorophenyl)-14-fluoro-3,7-dimethyl-16-oxa-18-thia-2,4,5,8-tetrazatetracyclo[8.8.0.02,6.011,17]octadeca-1(10),3,5,8,11(17)-pentaene] |  | 6.9 |  |
| Cc1nc2n(n1)-c1sc3c(c1C(c1c(F)cccc1F)=N[C@H]2C)COCCC3 [Example 57, (7S)-9-(2,6-difluorophenyl)-4,7-dimethyl-13-oxa-18-thia-2,3,5,8-tetrazatetracyclo[8.8.0.02,6.011,17]octadeca-1(10),3,5,8,11(17)-pentaene] |  | 1.53 |  |
| C[C@@H]1N=C(c2c(F)cccc2F)c2c(sc3c2COCCC3)-n2nc(C(=O)NCC3(O)CC3)nc21 [Example 62, (7S)-9-(2,6-difluorophenyl)-N-[(1-hydroxycyclopropyl)methyl]-7-methyl-13-oxa-18-thia-2,3,5,8-tetrazatetracyclo[8.8.0.02,6.011,17]octadeca-1(10),3,5,8,11(17)-pentaene-4-carboxamide] |  | 5.9 |  |
| C[C@@H]1N=C(c2c(F)cccc2F)c2c(sc3c2COCCC3)-n2nc(C(=O)N[C@H]3C[C@H](O)C3)nc21 [Example 63, (7S)-9-(2,6-difluorophenyl)-N-(trans-3-hydroxycyclobutyl)-7-methyl-13-oxa-18-thia-2,3,5,8-tetrazatetracyclo[8.8.0.02,6.011,17]octadeca-1(10),3,5,8,11(17)-pentaene-4-carboxamide] |  | 8.1 |  |
| C[C@@H]1N=C(c2c(F)cccc2F)c2c(sc3c2COCCC3)-n2nc(C(=O)N[C@H]3C[C@@H](O)C3)nc21 [Example 64, (7S)-9-(2,6-difluorophenyl)-N-(cis-3-hydroxycyclobutyl)-7-methyl-13-oxa-18-thia-2,3,5,8-tetrazatetracyclo[8.8.0.02,6.011,17]octadeca-1(10),3,5,8,11(17)-pentaene-4-carboxamide] |  | 6.5 |  |
| C[C@@H]1N=C(c2c(F)cccc2F)c2c(sc3c2COCCO3)-n2cc(C(=O)NCC3(O)CC3)nc21 [Example 65, (7S)-9-(2,6-difluorophenyl)-N-[(1-hydroxycyclopropyl)methyl]-7-methyl-13,16-dioxa-18-thia-2,5,8-triazatetracyclo[8.8.0.02,6.011,17]octadeca-1(10),3,5,8,11(17)-pentaene-4-carboxamide] |  | 1.69 |  |
| C[C@@H]1N=C(c2c(F)cccc2F)c2c(sc3c2COCCC3)-n2cc(C(=O)NCCO)nc21 [Example 66, (7S)-9-(2,6-difluorophenyl)-N-(2-hydroxyethyl)-7-methyl-13-oxa-18-thia-2,5,8-triazatetracyclo[8.8.0.02,6.011,17]octadeca-1(10),3,5,8,11(17)-pentaene-4-carboxamide] |  | 2.94 |  |
| C[C@@H]1N=C(c2c(F)cccc2F)c2c(sc3c2COCCC3)-n2cc(C(=O)NCC(C)(C)O)nc21 [Example 67, (7S)-9-(2,6-difluorophenyl)-N-(2-hydroxy-2-methyl-propyl)-7-methyl-13-oxa-18-thia-2,5,8-triazatetracyclo[8.8.0.02,6.011,17]octadeca-1(10),3,5,8,11(17)-pentaene-4-carboxamide] |  | 7.4 |  |
| C[C@@H]1N=C(c2c(F)cccc2F)c2c(sc3c2COCCC3)-n2cc(C(=O)NCC3(O)CC3)nc21 [Example 68, (7S)-9-(2,6-difluorophenyl)-N-[(1-hydroxycyclopropyl)methyl]-7-methyl-13-oxa-18-thia-2,5,8-triazatetracyclo[8.8.0.02,6.011,17]octadeca-1(10),3,5,8,11(17)-pentaene-4-carboxamide] |  | 2.95 |  |
| C[C@@H]1N=C(c2c(F)cccc2F)c2c(sc3c2COCCC3)-n2nc(C(=O)NC[C@@](C)(O)C(F)(F)F)nc21 [Example 70, (7S)-9-(2,6-difluorophenyl)-7-methyl-N-[(2R)-3,3,3-trifluoro-2-hydroxy-2-methyl-propyl]-13-oxa-18-thia-2,3,5,8-tetrazatetracyclo[8.8.0.02,6.011,17]octadeca-1(10),3,5,8,11(17)-pentaene-4-carboxamide] |  | 5.8 |  |
